Measurements reported in patent US6949522B2, “β-2′- or 3′-halonucleosides” (Pharmasset, Inc., priority 2001, dated 2005).
Marks after values point to notes of the source that are not given here.

Tests used:
HIV-1LAI = assay: HIV assay in human PBM cells (RT activity of supernatant); assay type: cell-based; conditions: 5 days, read-out: Anti-HIV-1 Activity (EC50)
Source text: Human peripheral blood mononuclear (PBM) cells (obtained from Atlanta Red Cross) were isolated by Ficoll-Hypaque discontinuous gradient centrifugation from healthy seronegative donors. Cells were stimulated with phytohemagglutinin A (Difco, Sparks, Md.) for 2-3 days prior to use. HIV-1LAI obtained from the Centers for Disease Control and Prevention (Atlanta, Ga.) was used as the standard reference virus for the antiviral assays. The molecular infetious clones HIV-1xxBru and HIV-1M184Vpin were obtained from Dr. John Mellors (University of Pittsburgh). Infections were done in bulk for one hour, either with 100 TCID50/1×10^7 cells for a flask (T25) assay or with 200 TCID50/6×10^5 cells/well for a 24 well plate assay. Cells were added to a plate or flask containing a ten-fold serial dilution of the test compound. Assay medium was RPMI-1640 supplemented with heat inactivated 16% fetal bovine serum, 1.6 mM L-glutamine, 80 IU/ml penicillin, 80 μg/ml streptomycin, 0.0008% DEAE-Dextran, 0.045% sodium bicarbonate, and 26 IU/ml recombinant interleukin-2 (Chiron Corp, Emeryville, Calif.). AZT was used as a positive control for the assay. Untreated and uninfected PBM cells were grown in parallel at equivalent cell concentrations as controls. The cell cultures were maintained in a humidified 5% CO2-air at 37° C. for 5 days and supernatants were collected for reverse transcriptase (RT) activity.
Supernatants were centrifuged at 12,000 rpm for 2 hours to pellet the virus. The pellet was solubilized with vortexing in 100 μl virus solubilization buffer (VSB) containing 0.5% Triton X-100, 0.8 M NaCl, 0.5 mM phenylmethylsulfonyl fluoride, 20% glycerol, and 0.05 M Tris, pH 7.8. Ten μL of each sample were added to 75 μL RT reaction mixture (0.06 M Tris, pH 7.8, 0.012 M MgCl2, 0.006 M dithiothreitol, 0.006 mg/ml poly (rA)n, oligo (dT)12-18, 96 μg/ml dATP, and 1 μM of 0.08 mCi/ml ^3H-thymidine triphosphate (Moravek Biochemicals, Brea, Calif.) and incubated at 37° C. for 2 hours. The reaction was stopped by the addition of 100 μL 10% trichloroacetic acid containing 0.05% sodium pyrophosphate. The acid insoluble product was harvested onto filter paper using a Packard Harvester (Meriden, Conn.), and the RT activity was read on a Packard Direct Beta Counter (Meriden, Conn.). The RT results were expressed in counts per minute (CPM) per milliliter.

human PBM cells = assay: in vitro; assay type: cell-based
Method: The compounds were evaluated for their potential toxic effects on uninfected PHA-stimulated human PBM cells, in CEM (T-lymphoblastoid cell line obtained from American Type Culture Collection, Rockville, Md.) and Vero (African green monkey kidney) cells. PBM cells were obtained from whole blood of healthy seronegative donors (HIV-1 and hepatitis B virus) by single-step Ficoll-Hypaque discontinous gradient centrifugation. […] All of the cells were plated in 96-well cell culture plates containing ten-fold serial dilutions of the test drug. […] At the end of incubation, MTT tetrazolium dye solution (Cell titer 96®, Promega, Madison, Wis.) was added to each well and incubated overnight. The reaction was stopped with stop solubilization solution (Promega, Madison, Wis.). The plates were incubated for 5 hours to ensure that the formazan crystals were dissolved. The plates were read at a wavelength of 570 nm using an ELISA plate reader (Bio-tek instruments, Inc., Winooski, Vt., Model # EL 312e). […] Bookmark not defined.

[1] = system: Vero (African green monkey kidney) cells; assay: in vitro; assay type: cell-based
Method: (§1) The compounds were evaluated for their potential toxic effects on uninfected PHA-stimulated human PBM cells, in CEM (T-lymphoblastoid cell line obtained from American Type Culture Collection, Rockville, Md.) and Vero (African green monkey kidney) cells. PBM cells were obtained from whole blood of healthy seronegative donors (HIV-1 and hepatitis B virus) by single-step Ficoll-Hypaque discontinous gradient centrifugation. Log phase Vero, CEM and PHA-stimulated human PBM cells were seeded at a density of 5×10^3, 2.5×10^3 and 5×10^4 cells/well respectively. All of the cells were plated in 96-well cell culture plates containing ten-fold serial dilutions of the test drug. The cultures were incubated for 3, 4 and 5 days for Vero, CEM, and PBM cells, respectively in a humidified 5% CO2-air at 37° C. At the end of incubation, MTT tetrazolium dye solution (Cell titer 96®, Promega, Madison, Wis.) was added to each well and incubated overnight. The reaction was stopped with stop solubilization solution (Promega, Madison, Wis.). The plates were incubated for 5 hours to ensure that the formazan crystals were dissolved. The plates were read at a wavelength of 570 nm using an ELISA plate reader (Bio-tek instruments, Inc., Winooski, Vt., Model # EL 312e). […] Bookmark not defined.

[2] = system: CEM (T-lymphoblastoid cell line); assay type: cell-based
Method: as §1

[3] = system: mitochondrial cytochrome C oxidase subunit II (COXII) gene; assay type: cell-based, human; conditions: HepG2, 10 μM, 7 days
Source text: The Q-RT-PCR technology was also used to evaluate potential mitochondrial γ-DNA polymerase inhibition by the compounds of the present invention in relevant human cells. […] Since active nucleoside compounds in the triphosphate form lack a 3′-OH, thereby stopping virus replication by chain termination, there is a concern that these nucleoside analogues are also substrates for the human DNA polymerase γ, resulting in inhibition of mitochondrial DNA replication and subsequently toxic side effects (11, 19). In an attempt to provide direct quantifiable data on mitochondrial DNA levels intracellular, a Q-PCR technology was designed and relative quantification of COXII DNA levels were calculated using the comparative Ct method. […] Also, in agreement with previous observations, no changes in normalized mitochondrial DNA levels were observed after FIAU and D4T treatment (6, 8, 23).
Low passage number HepG2 cells, obtained from American Tissue Culture Collection (ATCC, Manassas, Va.) were seeded at 5,000 cells/well in collagen-coated 96-well plates. Test compounds were added to the media to obtain a final concentration of 10 μM. On culture day 7, cellular nucleic acids were prepared by using commercially available columns (RNeasy 96 kit, Qiagen). […] The mitochondrial cytochrome C oxidase subunit II (COXII) gene and the β-actin or rRNA gene were amplified from 5 μL with a multiplex Q-PCR protocol using the suitable primers and probes for both target and reference (designed using the Primer Express software, Applied Biosystems); • for COXII. • sense primer 5′-[…]-3′ (Sequence 7); • probe 5′-TET-[…]-TAMRA-3′ (Sequence 8); and • antisense probe 5′-[…]-3′ (Sequence 9); • for exon 3 of β-actin (GenBank E01094): • sense primer 5′-[…]-3′ (Sequence 10); • probe 5′-6FAM-[…]-TAMRA-3′ (Sequnece 11); and • antisense probe 5′-[…]-3′ (Sequence 12).
The rRNA gene primers and probes were purchased from Applied Biosystems. Standard curves using 1-log diluted total HepG2 DNA were linear over more than 5 logs. In addition, efficiencies of target (COXII DNA) and reference (β-actin DNA or rRNA) amplification were approximately equal, because the slope of the ΔCt line (Ct β-actin minus Ct mitochondrial) was less than 0.1 (not shown). Since equal amplification efficiencies were obtained for both genes, the comparative cycle threshold (Ct) method was used to investigate potential inhibition of the mitochondrial DNA polymerase γ. The comparative Ct method uses arithmetic formulas in which the amount of target (COXII gene) is normalized to an endogenous reference (β-actin gene or rRNA gene) and is relative to a calibrator (no drug control at day 7). The arithmetic formula for this approach is given by 2-ΔΔCt (User bulletin # 2, Applied Biosystems).
In order to study the consequences of possible inhibitory effects of these compounds on host DNA polymerases, nuclear and rnitochondrial DNA levels were quantified and compared to no-treatment controls. Cells were incubated for 7 days with 10 μM of each compound, followed by total nucleic acid extractions and multiplex Q-PCR of the rRNA gene and the mitochondrial COXII gene. Nucleic acids from cells exposed to the control compounds were also amplified in multiplex for mitDNA and the β-actin gene. The results are presented in Table 4 using the comparative Ct method.

Row | Compound | EC50 (HIV-1LAI) [µM] | IC50 (human PBM cells) [µM] | IC50 [1] [µM] | IC50 [2] [µM] | COXIINrDNA (range) relative to control ([3]; COXII DNA normalized to rDNA, 2-ΔΔCt) | Average ΔΔCt ± SD COXII-rDNA [3] | Average ΔΔCt ± SD COXII-β-actin [3] | effect on (normalized) mitochondrial COXII DNA levels, in words [3] | COXIINβ-actin DNA (range) relative to control ([3]; COXII DNA normalized to β-actin DNA, 2-ΔΔCt) | Average ΔCt ± SD COXII DNA [3]
1 | Nc1nc(F)nc2c1ncn2[C@@H]1S[C@H](CO)C=C1F [Compound D-33, (+)-9-[(1R,4S)-2,3-dideoxy-2,3-didehydro-2-fluoro-4-thio-β-D-ribofuranosyl]-2-fluoroadenosine] | 1.2 | 1.5 | 7.6 | 1.1 | – | – | – | – | – | –
2 | Nc1nc2c(ncn2[C@H]2S[C@@H](CO)C=C2F)c(=O)[nH]1 [Compound L-32, (+)-9-[(1S,4R)-2,3-dideoxy-2,3-didehydro-2-fluoro-4-thio-β-L-ribofuranosyl]-guanosine] | – | 13 | 66.1 | 10.4 | – | – | – | – | – | –
3 | Nc1ccn([C@H]2CC[C@@H](CO)O2)c(=O)n1 [D-ddC, β-D-2′,3′-dideoxycytidine] | – | – | – | – | 0.23 (0.15-0.37) | 2.09 ± 0.65^d | 2.9 ± 0.23^d | reduce rnitochondrial COXII DNA levels | – | –
4 | O=c1[nH]cnc2c1ncn2[C@@H]1S[C@H](CO)C=C1F [Compound D-28, (+)-9-[(1R,4S)-2,3-dideoxy-2,3-didehydro-2-fluoro-4-thio-β-D-ribofuranosyl]-hypoxanthine] | 43.6 | > 100 | > 100 | > 100 | – | – | – | – | – | –
5 | (−)-1-[(1S,4R)-2,3-dideoxy-2,3-didehydro-2-fluoro-4-thio-β-D-ribofuranosyl]-uracil [Compound D-20] | > 100 | > 100 | > 100 | > 100 | – | – | – | – | – | –
6 | O=c1ccn([C@H]2S[C@@H](CO)C=C2F)c(=O)[nH]1 [Compound L-20, (+)-1-[(1S,4R)-2,3-dideoxy-2,3-didehydro-2-fluoro-4-thio-β-L-ribofuranosyl]-uracil] | > 100 | > 100 | > 100 | > 100 | – | – | – | – | – | –
7 | Cc1cn([C@H]2S[C@@H](CO)C=C2F)c(=O)[nH]c1=O [Compound L-19, (+)-1-[(1S,4R)-2,3-dideoxy-2,3-didehydro-2-fluoro-4-thio-β-L-ribofuranosyl]-thymine] | > 100 | > 100 | > 100 | > 100 | – | – | – | – | – | –
8 | Nc1ncnc2c1ncn2[C@H]1S[C@@H](CO)C=C1F [Compound L-27, (−)-9-[(1S,4R)-2,3-dideoxy-2,3-didehydro-2-fluoro-4-thio-β-L-ribofuranosyl]adenine] | 1.7 | > 100 | > 100 | > 100 | – | – | – | – | – | –
9 | Cc1cn([C@H]2C=C[C@@H](CO)O2)c(=O)[nH]c1=O [D-D4T, β-D-2′,3′-didehydro-3′-deoxythymidine] | – | – | – | – | – | – | 0.23 ± 0.04 | no changes | 0.85 (0.79-0.88) | 0.29 ± 0.01
10 | O=c1[nH]cnc2c1ncn2[C@H]1S[C@@H](CO)C=C1F [Compound L-28, (−)-9-[(1S,4R)-2,3-dideoxy-2,3-didehydro-2-fluoro-4-thio-β-L-ribofuranosyl]-hypoxanthine] | 15.5 | > 100 | > 100 | > 100 | – | – | – | – | – | –
11 | (−)-1-[(1S,4R)-2,3-dideoxy-2,3-didehydro-2-fluoro-4-thio-β-D-ribofuranosyl]-thymine [Compound D-19] | 92.3 | > 100 | 53 | > 100 | – | – | – | – | – | –
12 | Nc1nc2c(ncn2[C@@H]2S[C@H](CO)C=C2F)c(=O)[nH]1 [Compound D-32, (−)-9-[(1R,4S)-2,3-dideoxy-2,3-didehydro-2-fluoro-4-thio-β-D-ribofuranosyl]-guanosine] | 80.5 | > 100 | > 100 | > 100 | – | – | – | – | – | –
